PubChem BioAssay AID1845212 (Molecular Pharmacology Branch, DTP, NCI, 2023)

Test system: NCI-H719 tumor spheroids, viability
Assay: Anticancer human tumor NCI-H719 cell line growth inhibition;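 note: spheroids exposed to compounds for seven days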;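 for viability, T/C: percent viability relative to DMSO vehicle control as 100%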
Details: spheroids with HUVEC and MSC; for IC50: curve of first compound; for viability, T/C: stronger effect = lower value
From the text: Multicellular complex tumor spheroid response to DNA repair inhibitors in combination with DNA-damaging drugs
This study explores the anticancer activities of DNA-damaging drugs and inhibitors of DNA damage repair, both as single agents and in combinations. Complex tumor spheroids comprised of malignant cells, endothelial cells and mesenchymal stem cells served as an in vitro model for human solid tumors. This model system incorporates physiologically relevant features and patient-derived or established malignant cell lines with clinically relevant genetic alterations from many tumor types. Twenty-six patient-derived or established malignant cell lines were evaluated representing sarcoma, melanoma, small cell lung cancer (SCLC), non-small cell lung cancer (NSCLC), as well as bladder, ovarian and pancreatic cancers. The concentration ranges selected for each drug and investigational agent were based upon clinically achievable concentrations if the clinical Cmax of the agent was known.
Compounds. The drugs and compounds olaparib (NSC753686), talazoparib (NSC767125), berzosertib (NSC777718), elimusertib (NSC800525), nedisertib (NSC802822), VX-984 (NSC792969), AZD-1390 (NSC803789), temozolomide (NSC362856), topotecan (NSC609699), trabectedin (NSC813783), staurosporine (NSC755774), and gemcitabine (NSC613327) were obtained from the National Cancer Institute (NCI) Developmental Therapeutics Program Chemical Repository. The FDA-approved anticancer drug set is available from the Developmental Therapeutics Program at https://dtp.cancer.gov/organization/dscb/obtaining/available_plates.htm. […] The stock solutions were prepared in dimethyl sulfoxide (DMSO, Sigma-Aldrich, St. Louis, MO, cat. D2650) at 400-fold the tested concentration and stored at -70 degrees C. Prior to their use, the stock solutions were diluted in fresh medium and the final DMSO concentration in the assay was 0.25% (v/v). All drugs and investigational agents were tested over a range starting from a high concentration at or near the clinical Cmax and decreasing in half-log increments. If the clinical Cmax for an agent had not been determined, the highest concentration tested was 10 microM.
Cell Lines. The patient-derived cancer cell (PDC) lines: 156681-154-R-J1-PDC, 283228-195-R-J1-PDC, 287954-098-R-J1-PDC, 292921-168-R-J2-PDC, 349418-098-R-PDC, 425362-245-T-J1-PDC, 556581-035-R-J1-PDC, and BL0293-F563-PDC were received from the NCI Patient-Derived Models Repository (PDMR, https://pdmr.cancer.gov). The established cell lines HS-SY-2 (RRID:CVCL_8719), MPNST, and SYO-1 (RRID:CVCL_7146) were obtained from the Sloan Kettering Institute. The alveolar soft parts sarcoma cell line ASPS-1 (RRID:CVCL_S738) was established at the NCI and grown from internal seed stocks. The following established cell lines were purchased from the American Type Culture Collection (ATCC, Manassas, VA): G-401 (ATCC, cat. CRL-1441, RRID:CVCL_0270), SW982 (ATCC, cat. HTB-93, RRID:CVCL_1734), VA-ES-BJ (ATCC, cat. CRL-2138, RRID:CVCL_1785), NCI-H719 (ATCC, cat. CRL-5837, RRID:CVCL_1582), NCI-H196 (ATCC, cat. CRL-5823, RRID:CVCL_1509), NCI-H841 (ATCC, cat. CRL-5845, RRID:CVCL_1595), NCI-H1618 (ATCC, cat. CRL-5879, RRID:CVCL_1480), NCI-H1876 (ATCC, cat. CRL-5902, RRID:CVCL_1503), DMS 114 (ATCC, cat. CRL-2066; RRID:CVCL_1174), NCI-H211 (ATCC, cat. CRL-5824; RRID:CVCL_1529), and SW 1271 (ATCC, cat. CRL-2177, RRID:CVCL_1716). The small cell lung cancer cell line COR-L88 was purchased from Sigma-Aldrich (cat. 92031917-1VL, RRID:CVCL_1141). The non-small cell lung cancer cell lines NCI-H226 (RRID:CVCL_1544) and NCI-H322M (RRID:CVCL_1557) were established at the NCI and grown from internal seed stocks. Pooled donor human umbilical vein endothelial cells (HUVEC, Lonza, cat. CC-2519) and human mesenchymal stem cells (hMSC, Lonza, cat. PT-2501) were purchased from Lonza (Walkersville, MD).
Cell Culture. All cells were maintained in an incubator at 37 degrees C and 5% CO2 with 95% humidity. […]

[1] = second compound 0.003 µM, first compound 0.0949 µM
[2] = second compound 0.003 µM, first compound 0.3 µM
[3] = second compound 0.003 µM, first compound 0.949 µM
[4] = second compound 0.003 µM, first compound 3 µM
[5] = second compound 0.00949 µM, first compound 0.0949 µM
[6] = second compound 0.00949 µM, first compound 0.3 µM
[7] = second compound 0.00949 µM, first compound 0.949 µM
[8] = second compound 0.00949 µM, first compound 3 µM
[9] = second compound 0.03 µM, first compound 0.0949 µM
[10] = second compound 0.03 µM, first compound 0.3 µM
[11] = second compound 0.03 µM, first compound 0.949 µM
[12] = second compound 0.03 µM, first compound 3 µM
[13] = second compound 0.0949 µM, first compound 0.0949 µM
[14] = second compound 0.0949 µM, first compound 0.3 µM
[15] = second compound 0.0949 µM, first compound 0.949 µM
[16] = second compound 0.0949 µM, first compound 3 µM
[17] = second compound 0.3 µM, first compound 0.0949 µM
[18] = second compound 0.3 µM, first compound 0.3 µM
[19] = second compound 0.3 µM, first compound 0.949 µM
[20] = second compound 0.3 µM, first compound 3 µM

Compound	IC50 (second compound 0.003 µM)	IC50 (second compound 0.00949 µM)	IC50 (second compound 0.03 µM)	IC50 (second compound 0.0949 µM)	IC50 (second compound 0.3 µM)	viability, T/C [1]	viability, T/C [2]	viability, T/C [3]	viability, T/C [4]	viability, T/C [5]	viability, T/C [6]	viability, T/C [7]	viability, T/C [8]	viability, T/C [9]	viability, T/C [10]	viability, T/C [11]	viability, T/C [12]	viability, T/C [13]	viability, T/C [14]	viability, T/C [15]	other results
Cn1ncnc1[C@H]1c2n[nH]c(=O)c3cc(F)cc(c23)N[C@@H]1c1ccc(F)cc1 + CC[C@@]1(O)C(=O)OCc2c1cc1n(c2=O)Cc2cc3c(CN(C)C)c(O)ccc3nc2-1	< 9.49 nM	< 9.49 nM	< 9.49 nM	< 9.49 nM	< 9.49 nM	5.99%	5.19%	4.99%	5.85%	5.47%	5.57%	5.5%	6.37%	4.9%	5.13%	5.61%	6.6%	6.09%	5.95%	5.66%	viability, T/C (second compound 0.003 µM, first compound 0.00949 µM): 5.32%; viability, T/C (second compound 0.003 µM, first compound 0.03 µM): 5.79%; viability, T/C (second compound 0.00949 µM, first compound 0.00949 µM): 5.81%; viability, T/C (second compound 0.00949 µM, first compound 0.03 µM): 5.54%; viability, T/C (second compound 0.03 µM, first compound 0.00949 µM): 5.15%; viability, T/C (second compound 0.03 µM, first compound 0.03 µM): 5.23%; viability, T/C (second compound 0.0949 µM, first compound 0.00949 µM): 5.2%; viability, T/C (second compound 0.0949 µM, first compound 0.03 µM): 5.29%; viability, T/C [16]: 7.03%; viability, T/C (second compound 0.3 µM, first compound 0.00949 µM): 5.56%; viability, T/C (second compound 0.3 µM, first compound 0.03 µM): 5.67%; viability, T/C [17]: 5.84%; viability, T/C [18]: 5.89%; viability, T/C [19]: 6.04%; viability, T/C [20]: 5.47%
O=C(c1cc(Cc2n[nH]c(=O)c3ccccc23)ccc1F)N1CCN(C(=O)C2CC2)CC1 + CC[C@@]1(O)C(=O)OCc2c1cc1n(c2=O)Cc2cc3c(CN(C)C)c(O)ccc3nc2-1	< 94.9 nM	< 94.9 nM	< 94.9 nM	< 94.9 nM	< 94.9 nM	8.96%	7.42%	6.71%	6.81%	6.26%	5.9%	6.11%	5.87%	5.59%	5.66%	6.11%	5.5%	5.78%	5.76%	5.69%	viability, T/C (second compound 0.003 µM, first compound 9.49 µM): 5.81%; viability, T/C (second compound 0.003 µM, first compound 30 µM): 4.97%; viability, T/C (second compound 0.00949 µM, first compound 9.49 µM): 5.83%; viability, T/C (second compound 0.00949 µM, first compound 30 µM): 5.35%; viability, T/C (second compound 0.03 µM, first compound 9.49 µM): 5.9%; viability, T/C (second compound 0.03 µM, first compound 30 µM): 5.66%; viability, T/C [16]: 5.69%; viability, T/C (second compound 0.0949 µM, first compound 9.49 µM): 5.97%; viability, T/C (second compound 0.0949 µM, first compound 30 µM): 5.61%; viability, T/C [17]: 5.43%; viability, T/C [18]: 5.79%; viability, T/C [19]: 6.36%; viability, T/C [20]: 5.43%; viability, T/C (second compound 0.3 µM, first compound 9.49 µM): 5.25%; viability, T/C (second compound 0.3 µM, first compound 30 µM): 4.62%
